Data reported in ChEMBL document CHEMBL3244002, “Activity-electroreduction relationship of antimicrobial metronidazole analogues” (J Med Chem, 1978).
≈ marks a conversion by molar mass, not a printed value.

Columns and labels:
Clostridium pasteurianum = assay: Antimicrobial activity against Clostridium pasteurianum ATCC 6013 assessed as growth inhibition after 24 hrs under anaerobic conditions by microscopic analysis; assay type: functional; details: ATCC 6013, 24 h
Trichomonas vaginalis = assay: Antimicrobial activity against Trichomonas vaginalis ATCC 30001 assessed as growth inhibition after 48 hrs under anaerobic conditions by microscopic analysis; assay type: functional; details: ATCC 30001, 48 h
[1] = 1-Octanol-saturated McIlvaine buffer partition coefficient, log P of the compound at 80 uM at pH 6.01 by spectrophotometric analysis; assay type: physicochemical; details: 1-octanol/McIlvaine buffer
[2] = Decrease in current height for electroreduction of S-Fe bonding in clostridial ferridoxin assessed as alternating current reduction peak potential at 32 uM by polarographic technique; assay type: physicochemical
[3] = Effect on magnitude of electroreduction potential (Ep) of clostridial ferridoxin by alternating current polarographic technique; assay type: physicochemical

MIC (Clostridium pasteurianum)	MIC (Trichomonas vaginalis)	logD at 80 µM [1]	Activity [2]	Activity [3]	Compound
0.78 µg/mL (≈ 3.68 µM)	10.9 µg/mL (≈ 51.6 µM)	-0.469	–	–	CC(=O)NCCn1c([N+](=O)[O-])cnc1C
0.683 µg/mL (≈ 2.49 µM)	0.195 µg/mL (≈ 0.711 µM)	1.28	0.533 V	Not Active	Cc1ncc([N+](=O)[O-])n1CCSC(=S)N(C)C
5.47 µg/mL (≈ 18.4 µM)	12.5 µg/mL (≈ 42 µM)	1.47	–	–	Cc1ncc([N+](=O)[O-])n1CCSc1ccc(Cl)cc1
0.39 µg/mL (≈ 1.61 µM)	0.195 µg/mL (≈ 0.805 µM)	0.455	–	–	Cc1ncc([N+](=O)[O-])n1CCOC(=O)N(C)C
0.244 µg/mL (≈ 1.43 µM)	0.098 µg/mL (≈ 0.573 µM)	-0.051	–	–	Cc1ncc([N+](=O)[O-])n1CCO [METRONIDAZOLE]
0.39 µg/mL (≈ 1.83 µM)	0.098 µg/mL (≈ 0.46 µM)	0.301	–	–	CC(=O)OCCn1c([N+](=O)[O-])cnc1C
1.17 µg/mL	6.25 µg/mL	-2.05	–	–	Cc1ncc([N+](=O)[O-])n1CCS(=O)(=O)[O-].[Na+]
0.39 µg/mL (≈ 2.06 µM)	0.195 µg/mL (≈ 1.03 µM)	0.879	–	–	Cc1ncc([N+](=O)[O-])n1CCCl

Compound	MIC (Clostridium pasteurianum)	MIC (Trichomonas vaginalis)	logD at 80 µM [1]	Activity [2]	Activity [3]
Cc1ncc([N+](=O)[O-])n1CCN=[N+]=[N-]	0.39 µg/mL (≈ 1.99 µM)	0.341 µg/mL (≈ 1.74 µM)	0.755	–	–
